{"source": "paper PMC11528066", "about": "“Noninvasive Monitoring of Programmed Death-Ligand 2 Expression with Positron Emission Tomography using ^68Ga-labeled Peptide Antagonist in Preclinical and Exploratory Human Studies” (Research, 2024)", "key": {"[1]": {"assay": "Pharmacokinetics in blood", "format": "in vivo", "conditions": "healthy BALB/C mouse, i.v. 5.55 MBq, noncompartmental model, Phoenix WinNonlin 8.1", "procedure": "(§1) The static PET/CT imaging in A549 and A549-PD-L2 xenograft models after injection of 5.55 to 7.4 MBq (150 to 200 μCi) of [^68Ga]Ga-HN11-1 or [^68Ga]Ga-HN11-2 were acquired at 60 min. In the [^68Ga]Ga-HN11-1 + block or [^68Ga]Ga-HN11-2 + block groups, the xenograft models underwent pretreatment via intravenous injection of HN11-1 or HN-2 (10 mg/kg) before PET/CT imaging. Then, ROIs were delineated for each group. After imaging, tumor tissues from both the A549 and A459-PD-L2 xenograft tumors were extracted, and the PD-L2 expression was tested by IHC. For the pharmacokinetics study, healthy BALB/C mouse received an intravenous injection of 5.55 MBq (150 μCi) of [^68Ga]Ga-HN11-1 and [^68Ga]Ga-HN11-2. Measure the activity of blood samples (%ID/g, mean ± SD) at the corresponding time points, and the time-activity curve was plotted. Subsequently, pharmacokinetic parameters were tested using the noncompartmental model in Phoenix WinNonlin 8.1 software (Certara, USA)."}, "[2]": {"system": "A549-PD-L2 xenograft models", "assay": "Static PET/CT imaging with blocking", "format": "in vivo, BALB/C nude mice", "conditions": "60 min, pretreatment i.v. with excess HN11-1 / HN11-2 (10 mg/kg), n = 3", "procedure": "as §1"}, "[3]": {"assay": "Safety after intravenous injection in volunteers and patients", "format": "in vivo, human", "conditions": "3 healthy volunteers and 6 patients, intravenous injection 3.1 to 4.9 MBq/kg", "procedure": "The program content was explained to all healthy volunteers and cancer patients, and written informed consent was obtained. Whole-body dynamic imaging was conducted for 60 min using a PET/CT 690 Elite scanner (GE Discovery) immediately after intravenous injection of [^68Ga]Ga-HN11-1 (3.1 to 4.9 MBq/kg). A static body scan was performed 15 to 45 min after injection. All cancer patients underwent [^18F]F-FDG and [^68Ga]Ga-HN11-1 PET/CT imaging within 5 d. Two nuclear medicine physicians reconstructed and reviewed the images on GE aw 4.6 workstations and reached a consensus. They delineated the ROIs and measured the values of maximum standard uptake and average standard uptake (SUVmax and SUVmean). The biological distribution of [^68Ga]Ga-HN11-1 in healthy volunteers was determined by SUVmax and SUVmean. The OLINDA/EXM software (version 1.0, Hermes Medical Solutions AB) was used to estimate the human radiation dose based on the SUVmean of each organ."}}, "note": "Peptide text beside a SMILES is read from it. * marks the point of attachment. NOTA = O=C(O)CN1CCN(CC(=O)O)CCN(CC(=O)*)CC1; AEEEA = NCCOCCOCCOCC(=O)O"}
{"compound": "CC[C@H](C)[C@H](NC(=O)[C@H](CCCNC(=N)N)NC(=O)CNC(=O)[C@H](CCC(=O)O)NC(=O)[C@H](CC(N)=O)NC(=O)[C@H](Cc1ccc(O)cc1)NC(=O)[C@H](CCCNC(=N)N)NC(=O)[C@H](Cc1ccc(O)cc1)NC(=O)[C@H](Cc1c[nH]cn1)NC(=O)COCCOCCOCCNC(=O)CN1CCN(CC(=O)O)CCN(CC(=O)O)CC1)C(=O)N[C@@H](CCCNC(=N)N)C(=O)N[C@@H](CC(N)=O)C(=O)O", "note": "[[^68Ga]Ga-HN11-1, metal not drawn] ({NOTA-AEEEA}-HYRYNEGRIRN-OH)", "values": [{"measurement": "half-life in blood", "setting": "[1]", "result": 13.37, "unit": "min"}, {"measurement": "tumor uptake after blocking", "setting": "[2]", "result": "0.74 ± 0.03", "unit": "%ID/g"}, {"measurement": "tolerability / adverse pharmacological reactions", "setting": "[3]", "result": "well tolerated and without adverse pharmacological reactions observed"}]}
